Laboratory results published in patent publication US11951171B2, “Polypeptide EXP and its drug delivery system as well as extracellular vesicle extraction” (TIANJIN MEDICAL UNIVERSITY, priority 2019, dated 2024).

Columns and labels:
[1] = tested on: exosomes in serum; experiment: Capture of serum exosomes with His-tagged peptide coated nickel beads
Excerpt: (A) Nano sight was used to detect the particle size of exosomes in serum captured by CP05 and EXP. It's shown by the results that the particle size of exosomes captured by EXP was about 50 nm, whose homogeneity was higher than that of exosomes recovered by ultra separation. […] It's shown by the results that exosomes captured by EXP has typical bi-layer structure, and the size of exosomes captured by EXP was smaller than that of exosomes recovered by ultrafiltration.(D) Western blot was used to detect the marker protein capturing exosome.
Experimental example 6: Characterization and functional validation of exosome captured from serum by EXP. • (1) His-tagged EXP and CP05 (100 μg) were respectively mixed with […] beads in 200 μl binding solution at 4° C. for 1 h under rotation. • (2) 1 ml pre-centrifuged serum was added to His-EXP and His-CP05 coated nickel beads (centrifuged at 4400 g for 20 min, followed by 13000 g for 5 min), and then incubated at 4° C. for 30 min; • (3) The serum was discarded and the nonspecific binding was washed with the washing solution for 3 times, 10 min each time. • (4) […] was used to recover extracellular vesicles.
6.1 Measurement of the size of captured exosomes. • (1) […] of exosomes recovered from elution were diluted into 1 ml of PBS. • (2) Nanosight was used to detect the size distribution of captured exosomes. […]

[2] = tested on: exosomes derived from murine myotubes(EXOmyotube), cardiac sphere cells (CDC) (EXOCDC) and human serum (EXOserum); experiment: Binding efficiency with exosomes from different sources (flow cytometry)
Method: FAM-labeled CP05 or EXP was co-incubated with exosomes derived from murine myotubes(EXOmyotube), cardiac sphere cells (CDC) (EXOCDC) and human serum (EXOserum), and the binding efficiency was detected with flow cytometry. It's shown by the results that the binding efficiency of CP05 to exosomes from different sources is about 70%, and the binding efficiency of the same amount of EXP with exosomes from corresponding sources was about 90%.
Experimental example 5: Comparison on binding efficiency of EXP and exosomes from different sources. • (1) 0.06 μg FAM-labeled CP05 and 0.06 μg of different peptides were respectively mixed with 10 μg exosome from dC2C12, CDC, serum, and DPBS was used to make up a deficiency to 200 μl. • (2) The mixture was incubated for 2-4 hrs at 4° C. under rotation in vertical shaker. • (3) The binding efficiency was detected with flow cytometry.

[3] = tested on: exosomes; experiment: Competitive binding of CP05 and EXP to exosomes (flow cytometry); settings: peptide alone with exosomes (FIG. 3A, first line)
Method: AF750 (APC-Cy7)-labeled CP05 and FAM-labeled CP05 or EXP were co-incubated with exosomes at ratios of 1:1 or 1:5 (mass ratio), and the binding efficiency was detected with flow cytometry. It's shown by the results that when EXP and CP05 were incubated with exosomes at the same time, EXP could compete with CP05 to combine with exosomes, thus reducing the binding efficiency of CP05 and exosomes. (A) Flow cytometry to detect the binding efficiency of EXP or CP05 to exosomes. EXO was used as negative control; EXOCP05 is the binding efficiency of CP05 (FAM, af750) separately labeled by different fluorescence labeling with exosomes. EXOEXP is the binding efficiency of FAM labeled EXP andexosomes. 1:1, 1:5, 1:10 means different mass ratios of AF750 and FAM-EXP/FAM-CP05 are respectively as 1:1, 1:5, 1:10. It's shown by the results of flow cytometryto that the binding efficiency of CP05 alone with EXO was about 70%, while that of EXP and exosomes was 91.5% (flow cytometry to chart: the first line). […] However, it's found by comparing different fluorescence CP05 molecules (flow cytometry to chart: the third line) that, the binding efficiency of EXOCP05 (AF750) remained unchanged with increasing the mass ratio of FAM-CP05. […] Different fluorescence-labeled CP05 (APC-Cy7, FAM) were co-incubated with exosomes, their binding efficiency is detected with flow cytometry. […]

[4] = tested on: MVmyo (microvesicles derived from differentiated muscle cells); experiment: Binding efficiency of EXP and CP05 to microvesicles (flow cytometer); settings: flow cytometer (FIG. 8C)
Excerpt: (A)Western blot is used to identify and compare the expression of biomarker proteins of MV and exosomes. It's shown by the results that Tetraspanin family proteins like CD81, CD9 and CD63 were expressed in MV, but mitochondrial marker protein Cytochrome C was not expressed. (B) particle size distribution of MV from different sources were detected by Nanosight. MVmyot means microvesicles derived from differentiated muscle cells; MVurine means microvesicles derived from urine. (C) Examination of the binding efficiency of EXP and CP05 to MVmyo was detected by flow cytometer. […] (E)Western blot was used to detect the recovery of dystrophin protein expression after MVEXPPMO treatment. […]

binding efficiency of peptide alone with EXO [3]: 91.5%
Sequence: CRHKMWTVKSRL (EXP)
capture efficiency of exosomes in serum ([1]; FIG. 6F): 93.5%
extraction rate of serum exosomes compared with CP05 ([1]; extraction of serum exosomes): about 2 times
binding efficiency to exosomes from serum compared with CP05 ([2]; exosomes from serum): significantly higher than that of CP05
binding efficiency to exosomes from different sources ([2]; same amount of FAM-labeled peptide, EXOmyotube, EXOCDC, EXOserum): about 90%
binding efficiency to MVmyot compared with CP05 [4]: significantly higher than that of CP05
